Here are results for 102 compounds from PubChem BioAssay AID1996.

Broadly, the solubility (kinetic) is solubility judged after dilution from a stock solution rather than from solid.

Converted amounts (≈) assume the structure as drawn.

For the series the following is noted: buffer; pH 7.4; 200.0 µM.
Take `O=C(Cn1ccnc1[N+](=O)[O-])NCc1ccccc1`: the kinetic solubility is over 39 µg/mL.

`O=C(COC(=O)CCC(=O)c1ccc(F)cc1)Nc1ccc(Cl)cn1` yielded a solubility (kinetic) of 21.1 µg/mL (≈ 57.8 µM). In the case of `CCCn1c(SCC(=O)N(C)C2CCS(=O)(=O)C2)nc2sc3c(c2c1=O)CCC3` (configuration not stated), the solubility (kinetic) is over 68.3 µg/mL.

`Cc1cc(NC(=O)c2ccno2)no1` showed a solubility (kinetic) of over 29 µg/mL. With `Cc1ccc(NC(=O)Cc2cc(C(=O)O)c3ccccc3n2)c(C)c1` the figure was 2.5 µg/mL (≈ 7.48 µM); with `Cc1ccc(NC(=O)CN(C)C(=O)C2CC(=O)N(Cc3ccccc3)C2)cc1` (configuration not stated), 44.7 µg/mL (≈ 118 µM). Compound `O=C(O)/C=C/C(=O)NCC1CCC(CNC(=O)/C=C/C(=O)O)CC1` (configuration not stated) came in with a kinetic solubility of over 50.8 µg/mL. `C=CCN1C(=O)/C(=C/c2ccc(Br)s2)C(=O)NC1=S` had a solubility (kinetic) of 15.7 µg/mL (≈ 43.9 µM).

`O=c1[nH]c(/C=C\c2cccc(C(F)(F)F)c2)nc(O)c1[N+](=O)[O-]` returned a solubility (kinetic) of over 49.1 µg/mL. Take `O=[N+]([O-])c1ccc(COc2cccc3cccnc23)cc1`: the solubility (kinetic) is 2.4 µg/mL (≈ 8.56 µM). `CN(C)S(=O)(=O)c1ccc(NC(=O)Cn2ccsc2=N)cc1` displayed a solubility (kinetic) of 48 µg/mL (≈ 141 µM). `COc1ccc(NC2CCCN(Cc3cccc4cnccc34)C2)cc1` (configuration not stated) showed a kinetic solubility of 49.4 µg/mL (≈ 142 µM).

`CCN(C(=S)Nc1ccc(OC(F)F)cc1)C1CCCCC1`: the kinetic solubility was determined as 5.4 µg/mL (≈ 16.4 µM). The value for `O=C(CCN1C(=O)c2ccccc2C1=O)Nc1cccc(O)c1` was over 46.5 µg/mL. With `COc1cc2c(cc1OC)C(COc1ccc(C(C)C)cc1)NCC2` (configuration not stated) the figure was 35.1 µg/mL (≈ 103 µM). With `CCOC(=O)c1sc(=S)n(-c2ccc(OC)cc2)c1N` the figure was 2 µg/mL (≈ 6.44 µM); with `O=C(NOCc1ccccc1)c1ccc(Cl)cc1`, 11.3 µg/mL (≈ 43.2 µM); with `CCN(CC)S(=O)(=O)c1nnc(NC(=O)c2ccco2)s1`, over 49.6 µg/mL. Compound `Cc1ccc(S(=O)(=O)N(C)C)cc1NC(=O)C(C)OC(=O)c1cc[n+]([O-])cc1` (configuration not stated) displayed a kinetic solubility of over 61.1 µg/mL. With `CC(NC(=S)Nc1ccccc1C(F)(F)F)C1CC2CCC1C2` (configuration not stated) the figure was 2.1 µg/mL (≈ 6.13 µM); with `COc1ccc(NC2(C#N)CCCCC2)cc1`, 12.4 µg/mL (≈ 53.8 µM). With `Cc1cc(=O)n2c3ccccc3n(CC(O)CN3CCOCC3)c2c1C#N` (configuration not stated) the figure was over 55 µg/mL; with `C=CCNC(=S)NNC(=O)C(CC(C)C)CC(C)O` (configuration not stated), over 43.1 µg/mL.

For `CC(OC(=O)c1ccco1)C(=O)NC1CCCC1` (configuration not stated), the solubility (kinetic) is over 37.7 µg/mL. As to `C/C(=N\OCC(=O)Nc1ccccc1C(=O)O)c1cccs1`, the solubility (kinetic) was over 47.8 µg/mL. The value for `NC(=O)NC(=O)COC(=O)/C=C/c1cccc(Br)c1` was 0.4 µg/mL (≈ 1.22 µM); that for `Fc1ccc(CNC(=S)Nc2ccccc2F)cc1` was over 41.7 µg/mL. The value for `Cn1c2ccccc2c2cc([N+](=O)[O-])ccc21` was under 0.2 µg/mL. The value for `COc1ccc(C(=O)COc2ccc(C)cc2NC(C)=O)cc1` was 36.7 µg/mL (≈ 117 µM). For `CC(C)CN(CC(C)C)C(=S)Nc1ccc(Cl)cc1`, the solubility (kinetic) stood at 2.2 µg/mL (≈ 7.36 µM).

In turn, `O=C(c1cc([N+](=O)[O-])[nH]n1)N1CCSCC1` came in with a kinetic solubility of over 36.3 µg/mL. With `CN(C)C(=O)C1CCC(=O)N1Cc1cccs1` (configuration not stated) the figure was over 37.8 µg/mL; with `COCCCN(CC(=O)Nc1ccc(F)cc1)S(=O)(=O)c1cccs1`, over 58 µg/mL. `CC1CCN(C(=O)CNC(=O)c2cccc(OC(F)F)c2)CC1`: the kinetic solubility was over 49 µg/mL.

Consider `Cc1cc(C(=O)OCC(=O)Nc2c(Cl)cccc2Cl)c(C)o1`, for which the kinetic solubility turned out to be 8.7 µg/mL (≈ 25.4 µM).

As to `COC(=O)c1ccc(C2Nc3cccc4cccc(c34)N2)cc1`, the kinetic solubility amounted to 3.5 µg/mL (≈ 11.5 µM). The value for `COc1c(C)cc(S(=O)(=O)NCCN2CCOCC2)c(C)c1C` was 46.4 µg/mL (≈ 135 µM).

`Cc1ccc(CNC(=O)CN2C(C)CCCC2C)cc1` (configuration not stated) showed a solubility (kinetic) of 28.9 µg/mL (≈ 105 µM). Consider `O=C1CC(=O)N(c2cccc(Br)c2)C(=O)N1`, for which the solubility (kinetic) worked out at 39.2 µg/mL (≈ 138 µM). With `O=[N+]([O-])c1ccc(-c2nc(NCC3CCCO3)c3ccccc3n2)cc1` (configuration not stated) the figure was 0.6 µg/mL (≈ 1.71 µM). With `O=S(=O)(NCc1cccs1)c1ccc(Br)cc1` the figure was 11.6 µg/mL (≈ 34.9 µM). For the compound `CCOC(=O)c1sc2nc(C)nc(NCc3ccccc3)c2c1C`, the solubility (kinetic) worked out at 0.3 µg/mL (≈ 0.879 µM). With `Cc1cc(C)nc(SCc2cn3c(C)cc(C)nc3n2)n1` the figure was over 44.9 µg/mL; with `COc1ccccc1NC(=O)C1CCOC1=O` (configuration not stated), over 35.3 µg/mL; with `Cc1ccc(S(=O)(=O)N2CCCCC2)cc1NC(=O)CCNC(=O)c1ccccc1`, 9.4 µg/mL (≈ 21.9 µM). In turn, `COCCOC(=O)C1=C(C)NC(=S)NC1c1cccs1` (configuration not stated) showed a solubility (kinetic) of over 46.9 µg/mL. `Cn1cnc2c(N/N=C/c3cccs3)ncnc21` displayed a solubility (kinetic) of over 38.7 µg/mL. Consider `O=S(=O)(c1ccc(-c2cc(C(F)(F)F)on2)s1)N1CCCC1`, for which the solubility (kinetic) amounted to 1 µg/mL (≈ 2.84 µM).

`CC(=O)Nc1ccc(SCC(=O)NCC2(N3CCCCC3)CCCCC2)cc1`: the kinetic solubility is over 60.5 µg/mL.

As for `O=C(CN1CCCCC1)Nc1ccccc1Cl`, the solubility (kinetic) came to 26.8 µg/mL (≈ 106 µM). `COc1ccccc1N1CCN(/N=C/c2ccccc2C(=O)O)CC1` returned a solubility (kinetic) of over 50.9 µg/mL. As for `Cc1ccccc1-n1ccnc1SCC(=O)Nc1cccc(S(=O)(=O)NC2=NCCC2)c1`, the solubility (kinetic) was over 70.4 µg/mL. Regarding `Cl.Nc1nc2cc3ccccc3cc2[nH]c1=O`, the solubility (kinetic) worked out at 5.2 µg/mL. `CC(=O)c1ccc(OCCOc2ccc(Cl)c3cccnc23)cc1` registered a kinetic solubility of under 0.7 µg/mL. `O=C(c1cccc(F)c1)N1CCCC(C(=O)N2CCCCC2)C1` (configuration not stated) gave a solubility (kinetic) of over 47.8 µg/mL. As for `Cc1cccc(NC(=O)CN(CC2CCCO2)C(=O)c2cc(S(=O)(=O)N(C)C)ccc2F)c1C` (configuration not stated), the solubility (kinetic) is over 73.7 µg/mL. In turn, `CCN(CC)CCn1c(NC(=O)c2ccccc2O)nc2ccccc21` gave a solubility (kinetic) of 18.5 µg/mL (≈ 52.5 µM). With `Nc1cc(=O)[nH]c(SCC(=O)c2ccc(F)cc2)n1` the figure was over 41.9 µg/mL. For `CC(=O)N1CCc2ccccc2C1CC(=O)O` (configuration not stated), the solubility (kinetic) came out at 32.7 µg/mL (≈ 140 µM). The value for `CC(C)C1Cc2ccccc2-c2[nH]c(=S)[nH]c(=O)c21` (configuration not stated) was 27 µg/mL (≈ 99.1 µM). With `CC(=O)c1c(Cl)nc2cccc3c2c1-c1ccccc1C3=O` the figure was under 0.7 µg/mL. The value for `Cc1ccc(N2CC(O)Cn3c2nc2c3c(=O)[nH]c(=O)n2C)cc1` (configuration not stated) was 16.2 µg/mL (≈ 49.5 µM); that for `O=C(COC(=O)COc1ccccc1[N+](=O)[O-])Nc1ccc2c(c1)OCO2` was 51.5 µg/mL (≈ 138 µM). `COc1ccc(CC(=O)Nc2cc(C)ccc2O)cc1OC` came in with a solubility (kinetic) of over 45.2 µg/mL.

`Cc1cccc(NC(=O)C(C)n2cc([N+](=O)[O-])cn2)n1` (configuration not stated): the kinetic solubility is over 41.3 µg/mL. With `CC(C)NC(=O)COc1ccc(OCc2ccccc2)cc1` the figure was 9.5 µg/mL (≈ 31.7 µM). Regarding `COc1cccc(CC(=O)Nc2nc3ccccc3[nH]2)c1`, the solubility (kinetic) stood at 2.2 µg/mL (≈ 7.82 µM). With `COc1ccc(C(=O)Nc2cccc(S(=O)(=O)N(C)C)c2)cc1S(=O)(=O)N1CCOCC1` the figure was 12.3 µg/mL (≈ 25.4 µM); with `CCn1c(C)cc(C(=O)COC(=O)c2ccccc2[N+](=O)[O-])c1C`, 15.3 µg/mL (≈ 46.3 µM); with `O=C(CSc1ncnc2ccccc12)N1CCNC1=O`, over 43.2 µg/mL. With `CSc1nc(=S)n(-c2ccccc2)c(C)c1C(C)=O` the figure was 41.7 µg/mL (≈ 144 µM); with `Cc1[nH]c2ccccc2c1SCC(=O)N1CCCCCC1`, 25.8 µg/mL (≈ 85.3 µM); with `CC(=O)N(Cc1cc(=O)[nH]c2ccccc12)c1ccccc1C`, 43.6 µg/mL (≈ 142 µM). With `COC(=O)C1C(c2ccccc2)NC(=O)NC1(O)C(F)(F)Cl` (configuration not stated) the figure was over 50.2 µg/mL.

Turning to `Cc1cc(N)ccc1-c1cc2ccccc2oc1=O`, the solubility (kinetic) is 25.8 µg/mL (≈ 103 µM).

Regarding `CN(Cc1ccccc1)C(=O)CN1C(=O)c2ccc([N+](=O)[O-])cc2C1=O`, the kinetic solubility was over 53 µg/mL.

Consider `C=CCOc1c(Cl)cc(C(=S)N2CCCC2)cc1OCC`, for which the solubility (kinetic) was 5.7 µg/mL (≈ 17.5 µM). The value for `C#CC(C)(C)NC(=S)NC1CC2C=CC1C2` (configuration not stated) was 28 µg/mL (≈ 119 µM); that for `COC(=O)N1CCCc2cc(C)ccc21` was 15.5 µg/mL (≈ 75.5 µM). With `COC(=O)c1ccc(/C=C/c2nc3ccccc3c(=O)[nH]2)cc1` the figure was 3.7 µg/mL (≈ 12.1 µM). The value for `CC(=O)Nc1ccc(S(=O)(=O)Nc2ccc3nc(C)sc3c2)cc1` was 14.6 µg/mL (≈ 40.4 µM); that for `O=C1NCCCC1C(=O)N1CCCCC1` (configuration not stated) was over 31.5 µg/mL. In the case of `CCOc1cccc(CN2CCN(Cc3ccc(C)o3)C(CCO)C2)c1O` (configuration not stated), the kinetic solubility is over 56.2 µg/mL. Turning to `COc1ccc(C(CNC(=O)c2cc(S(=O)(=O)N3CCN(c4ccccc4)CC3)ccc2Cl)N(C)C)cc1` (configuration not stated), the solubility (kinetic) came to 49.4 µg/mL (≈ 88.7 µM). In the case of `CC(C)N(CCC#N)C(=O)Nc1ccc2c(c1)CCO2`, the kinetic solubility is over 41 µg/mL. The value for `COc1ccc2c(c1)c1ncn(Cc3ccc(F)cc3)c(=O)c1n2C` was 2.5 µg/mL (≈ 7.41 µM); that for `Cc1[nH]c2ccccc2c1C(=O)C(=O)N1CCC2(CC1)OCCO2` was over 49.3 µg/mL; that for `O=C(Cc1ccc(Cl)cc1)NC1CCCCCC1` was 10.2 µg/mL (≈ 38.4 µM).

In the case of `C[C@H](Nc1ccc(C(F)(F)F)cc1[N+](=O)[O-])C(=O)O.[Cl-]`, the solubility (kinetic) was over 47 µg/mL. With `CN(C)C(=O)COc1ccc2c(-c3ccccc3)cc(=O)oc2c1` the figure was 12.6 µg/mL (≈ 39 µM); with `O=C(O)CNC(=O)/C(=C\c1ccco1)NC(=O)c1ccco1`, over 45.6 µg/mL; with `Cc1nn(C)c(Sc2ccccn2)c1[N+](=O)[O-]`, over 37.5 µg/mL. The value for `O=C(Nc1cccc2ccccc12)c1cccc([N+](=O)[O-])c1` was 1.4 µg/mL (≈ 4.79 µM); that for `O=C(OCC(=O)N1CCCC1=O)c1cc(Cl)ccc1O` was over 44.7 µg/mL. With `O=S(=O)(c1ccc(Cl)cc1)N1CCCCC1c1cccnc1` (configuration not stated) the figure was 47.7 µg/mL (≈ 142 µM).

On to `CCN(CC)c1ccc(C(=S)NCc2ccccc2)cc1`, for which the kinetic solubility was found to be 0.5 µg/mL (≈ 1.68 µM).

`NC1=NC(=O)C(Cc2ccccc2)S1` (configuration not stated) showed a kinetic solubility of over 30.9 µg/mL. With `O=C(O)CSc1c2c(nc3cc(C(=O)N4CCCC4)ccc13)CCCC2` the figure was 48.6 µg/mL (≈ 131 µM); with `COc1ccccc1C(=O)c1c(C)c(CCC#N)n2ccccc12`, 40.6 µg/mL (≈ 128 µM); with `COc1c(Cl)cccc1-c1cn2ccc(C)cc2n1`, 1.4 µg/mL (≈ 5.13 µM). Compound `CCOc1ccc(NC(=O)c2ccc(-c3csc(C)n3)cc2)cc1` gave a kinetic solubility of under 0.4 µg/mL.

`CC(OC(=O)c1cccc(N(C)C)c1)C(=O)N1CCc2ccccc2C1` (configuration not stated) registered a kinetic solubility of 37.3 µg/mL (≈ 106 µM).
